# Experimental data reported in publication PMC10088926, “Synthesis, DFT calculations, and anti-proliferative evaluation of pyrimidine and selenadiazolopyrimidine derivatives as dual Topoisomerase II and HSP90 inhibitors” (Journal of Enzyme Inhibition and Medicinal Chemistry, 2023).
# “Also recorded” adds a separate entry of the source. Like-named read-outs stand apart in the source and are kept apart here.
# Columns and labels:
# [1] = tested on: HepG-2 cells (human Hepatocellular carcinoma); assay: In vitro cytotoxicity, viability assay (MTT method), HepG-2; assay type: cell-based; details: HepG2, 24 h incubation, triplicate, read-out: IC50 values (mean ± SD) HepG-2
# Description: (§1) All experiments were conducted in triplicate.
# (§2) Scaffold I compounds were characterised by the uracil core attached to the 5,5-dimethyl cyclohexanone moiety through an NH linker and bearing an amino group at position 6. The activity of such compounds could be attributed to the larger number of hydrogen bond donors when compared to compounds with scaffold II. On the other hand, the activity of 5d with scaffold II could be attributed to the nature of the substituent at N1 of the pyrimidine ring being a hydrophobic benzyl group that could be involved in hydrophobic interaction and π-π stacking. Generally, the isosteric substitution of oxo with thioxo at position 2 of the pyrimidine ring lowered the anti-proliferative activity in both scaffolds I and II compounds.
# [2] = tested on: A-549 cells (lung carcinoma); assay: In vitro cytotoxicity, viability assay (MTT method), A-549; assay type: cell-based; details: Homo sapiens, A549, 24 h incubation, triplicate, read-out: IC50 values (mean ± SD) A-549
# Description: as §1, §2
# [3] = tested on: MCF-7 cells (human breast cancer cell line); assay: In vitro cytotoxicity, viability assay (MTT method), MCF-7; assay type: cell-based; details: MCF7, 24 h incubation, triplicate, read-out: IC50 values (mean ± SD) MCF-7
# Description: as §1, §2
# [4] = tested on: gene encoding HSP90; assay: HSP90 gene expression (RT-PCR) in HepG-2; assay type: cell-based, human; details: supernatant of HepG-2 cell lines, compared to control cells
# Description: (§3) The level of Topoisomerase II, HSP90, and caspase-3 gene expression were assessed using Bio-Rad RT-PCR Kit following the manufacturer’s instructions. HepG-2 cells were exponentially grown and then treated with 3a after treatment with DNA polymerase and fluorescein. The expression of Topoisomerase II, HSP90, and caspase-3 genes was measured fluorometrically.
# (§4) A caspase family is a group of cysteine proteases that activates apoptosis through receptor or mitochondrial-dependent cell death. Caspase-3 activation catalyses the cleavage of key cellular proteins, leading to both mitochondrial-dependent and non-dependent cell death. Caspase-3 is also associated with cell rupture and the formation of apoptotic bodies. The effect of 3a on caspase-3 gene expression was studied in HepG-2 cell lines. […] The gene that encodes DNA Topoisomerase II controls the topology of […] during DNA transcription. This gene is a target for anti-proliferative agents by altering enzyme activity. In the present work, the effect of 3a on the expression of the gene encoding Topoisomerase II in the supernatant of HepG-2 cell lines was studied. […] Furthermore, the HSP90 encoding gene interferes with the proper folding of specified protein targets and interferes with ATP binding.
# [5] = biological target: T1, Topoisomerase II (Homo sapiens, UniProt P11388); assay: In vitro Topoisomerase II enzyme inhibition assay (plasmid-based kit); assay type: biochemical
# T1 construct: purchased
# Description: (§5) In vitro enzyme inhibitory assay of compounds 3a and 5d was performed against Topoisomerase-II enzyme using Topoisomerase II Assay Kit (plasmid-based)[34] and HSP90 enzyme using HSP90 (C-Terminal) Inhibitor Screening Assay Kit[35]. The procedure of the used kits was done according to the manufacturer’s instructions.
# Topoisomerase II inhibitors can cause DNA damage and halt the cell cycle.
# [6] = tested on: HepG-2 cells; assay: Flow cytometric analysis of cell-cycle distribution (propidium iodide); assay type: cell-based, human
# Description: Cell-cycle analysis was performed by DNA staining with propidium iodide (PI) following the manufacturer’s protocol (Abcam, USA)[36]. HepG-2 cells were cultured following the procedure till exponential growth was reached. After removing the culture media, the cells were rinsed with phosphate buffer. Cells were then treated with 3a and suspended in 66% ethanol on the ice at 4 °C. Then, PI was added together with the RNase staining solution. Incubation was allowed for 20–30 min at 37 °C in the dark. For the preparation of flow cytometry, fixed cells were placed on ice. Podium iodide fluorescence was collected using 488 nm laser illumination.
# Thus, it was studied further to determine the mechanism of its cell growth inhibition. The standard PI flow cytometry assay was used to investigate cell cycle distribution and apoptosis induction in HepG-2 cells. […] 3a halts the cell cycle of HepG-2 at the G1-S phase.
# [7] = biological target: HSP90; assay: In vitro HSP90 enzyme inhibition assay (HSP90 (C-Terminal) Inhibitor Screening Assay Kit); assay type: biochemical; details: read-out: HSP90 IC50 (mean ± SD)
# Description: as §5
# As reported, cancer cell growth and proliferation are inhibited when HSP90 is inhibited.
# [8] = tested on: gene encoding Topoisomerase II; assay: Topoisomerase II gene expression (RT-PCR) in HepG-2; assay type: cell-based, human; details: supernatant of HepG-2 cell lines, compared to control cells
# Description: as §3, §4
# [9] = tested on: MCF-7, HepG-2 and A-549 cells; assay: Anti-proliferative screening, classification over the three cell lines; assay type: cell-based; details: compared to methotrexate
# Description: as §1, §2
# [10] = tested on: caspase-3 gene; assay: caspase-3 gene expression (RT-PCR) in HepG-2; assay type: cell-based, human; details: HepG-2, compared to control cells
# Description: as §3, §4
# [11] = tested on: HepG-2 cells; assay: Cellular apoptosis analysis (Annexin V-FITC/PI); assay type: cell-based, human; details: HepG-2, 14.31 μM, 24 h; untreated cells 0.58%
# Description: Annexin V is a protein that has a high affinity to bind to membrane phosphatidylserine (PS) translocated from the inner cellular plasma membrane to the cell surface after apoptosis initiation following the manufacturer protocol (Biovision, USA)[37]. HepG-2 cells in exponential growth were treated with compound 3a and incubated for 24 h. Then, 1–5 × 10^5 were collected via centrifugation and suspended in 500 µL of 1X Binding Buffer, 5 µL of Annexin V-FITC, and 5 µL of propidium iodide were added and allowed to incubate in the dark for 5 min, then Annexin V-FITC binding was quantified by flow cytometry using emission signal detector at 530 nm.
# Using HepG-2 cells and the Annexin FITC/PI dual-labelling technique, 3a-induced apoptosis was investigated.
# [12] = In vitro cytotoxicity against normal WI-38 cell line; details: human
# Description: The viability assay (MTT method)[33] was used to evaluate the cytotoxic activity of the synthesised compounds against three mammalian tumour cell lines obtained from the VACSERA Tissue Culture Unit, namely MCF-7 cells (human breast cancer cell line), HepG-2 cells (human Hepatocellular carcinoma), and A-549 cells (lung carcinoma), as well as the normal WI-38 human cell line for both compounds 3a and 5d. […] 1% Crystal violet stain: it is composed of 0.5% (w/v) crystal violet and 50% methanol, which is then diluted to volume with ddH2O and filtered through a Whatman No.1 filter paper. Dulbecco’s modified Eagle’s medium (DMEM) supplemented with 10% heat-inactivated foetal bovine serum, 1% L-glutamine, HEPES buffer, and 50 μg/mL gentamycin was used to grow the cells. All cells were cultured twice a week and kept at 37 °C in a humidified atmosphere with 5% CO2. In 100 μL of the growth medium, the cells were seeded in a 96-well plate at a cell concentration of 1 × 10^4 cells per well. After 24 h of seeding, a fresh medium containing different concentrations of the test sample was added. A multichannel pipette was used to add serial two-fold dilutions of the tested chemical compound to confluent cell monolayers dispensed into 96-well, flat-bottomed microtiter plates (Falcon, NJ, USA). The microtiter plates were incubated for 24 h at 37 °C in a humidified incubator with 5% CO2. For each concentration of the test sample, three wells were used. […] Glacial acetic acid (30%) was thoroughly mixed into all wells, and the absorbance of the plates was measured. Background absorbance detected in wells without added stain was corrected for in all results. […] Each tested compound’s cytotoxic effect on cells was calculated. To determine the number of viable cells, the optical density was measured using a microplate reader (Sunrise, TECAN, Inc, USA), and the percentage of viability was calculated as [(ODt/ODc)] × 100%, where ODt is the mean optical density of wells treated with the tested sample and ODc is the mean optical density of untreated cells. […]
# T1 sequence (P11388 whole entry): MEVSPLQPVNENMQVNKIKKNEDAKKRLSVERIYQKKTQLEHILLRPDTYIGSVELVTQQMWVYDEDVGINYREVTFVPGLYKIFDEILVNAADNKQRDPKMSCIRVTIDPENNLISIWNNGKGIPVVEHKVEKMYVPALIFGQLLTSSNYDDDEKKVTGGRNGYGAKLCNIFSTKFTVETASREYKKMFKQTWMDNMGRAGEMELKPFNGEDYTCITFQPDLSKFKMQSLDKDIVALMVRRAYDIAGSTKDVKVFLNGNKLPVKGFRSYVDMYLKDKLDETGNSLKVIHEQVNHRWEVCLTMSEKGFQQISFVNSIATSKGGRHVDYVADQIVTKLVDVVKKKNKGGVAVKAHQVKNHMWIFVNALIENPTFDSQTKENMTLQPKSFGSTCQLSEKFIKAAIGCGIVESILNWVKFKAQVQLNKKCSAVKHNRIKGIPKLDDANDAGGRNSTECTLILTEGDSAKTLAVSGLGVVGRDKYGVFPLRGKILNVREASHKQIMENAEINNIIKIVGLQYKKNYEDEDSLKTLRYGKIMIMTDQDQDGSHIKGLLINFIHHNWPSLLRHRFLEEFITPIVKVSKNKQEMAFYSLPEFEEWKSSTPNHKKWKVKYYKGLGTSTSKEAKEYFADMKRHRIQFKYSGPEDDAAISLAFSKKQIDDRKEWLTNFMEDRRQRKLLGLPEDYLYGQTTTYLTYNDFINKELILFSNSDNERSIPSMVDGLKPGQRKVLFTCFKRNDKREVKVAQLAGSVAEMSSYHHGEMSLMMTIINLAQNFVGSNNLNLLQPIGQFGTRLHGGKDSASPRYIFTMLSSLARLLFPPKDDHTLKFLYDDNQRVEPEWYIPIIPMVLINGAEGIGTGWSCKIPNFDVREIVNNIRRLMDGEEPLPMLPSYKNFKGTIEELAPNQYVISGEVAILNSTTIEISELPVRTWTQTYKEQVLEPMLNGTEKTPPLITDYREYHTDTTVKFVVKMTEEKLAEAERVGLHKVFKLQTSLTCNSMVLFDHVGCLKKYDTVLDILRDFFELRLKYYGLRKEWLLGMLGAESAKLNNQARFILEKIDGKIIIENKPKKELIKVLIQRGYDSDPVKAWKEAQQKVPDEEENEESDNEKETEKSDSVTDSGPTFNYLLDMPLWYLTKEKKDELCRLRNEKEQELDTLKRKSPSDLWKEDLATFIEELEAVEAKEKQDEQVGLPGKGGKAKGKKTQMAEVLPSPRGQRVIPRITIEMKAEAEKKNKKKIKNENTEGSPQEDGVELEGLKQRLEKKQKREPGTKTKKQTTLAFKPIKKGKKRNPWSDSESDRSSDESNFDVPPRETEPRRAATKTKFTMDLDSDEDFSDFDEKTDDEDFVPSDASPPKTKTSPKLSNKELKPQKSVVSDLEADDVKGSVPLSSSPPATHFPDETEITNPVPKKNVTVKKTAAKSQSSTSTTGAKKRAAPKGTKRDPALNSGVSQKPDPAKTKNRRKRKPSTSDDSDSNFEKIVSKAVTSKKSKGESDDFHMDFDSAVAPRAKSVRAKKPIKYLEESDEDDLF
Structure (SMILES),melting point,IC50 [1],IC50 [2],IC50 [3],anti-proliferative activity category [9],further results
Nc1c(N=[Se]=O)c(=O)[nH]c(=O)n1Cc1ccccc1Cl,> 300 °C,–,–,–,–,–
"O=c1[nH]cc(F)c(=O)[nH]1 [5-Fluorouracil, reference compound]",–,7.37 ± 0.29 µM,12.3 ± 0.53 µM,10.1 ± 0.44 µM,–,–
"CC1(C)CC(=O)C=C(Nc2c(N)[nH]c(=O)[nH]c2=O)C1 [Compound 3a, 6-Amino-5-((5,5-dimethyl-3-oxocyclohex-1-en-1-yl)amino)pyrimidine-2,4(1H,3H)-dione]",–,14.3 ± 0.83 µM,30.7 ± 0.76 µM,27.1 ± 1.91 µM,moderate to high,"HSP90 gene expression [4]: downregulating; also recorded: downregulated; IC50 ([5]; in vitro enzyme assay, read-out: Topoisomerase II IC50 (mean ± SD)): 4.48 ± 0.65 µM; phase at which the cell cycle is halted ([6]; HepG-2): G1-S phase; %DIP G1 (cells in the G1-S phase) ([6]; HepG-2, 14.31 μM, untreated cells 43.82% (±2.61)): 51.46%; IC50 [7]: 1.78 ± 0.11 µM; Topoisomerase II gene expression [8]: downregulating; also recorded: downregulate; caspase-3 gene expression [10]: upregulating; also recorded: increased; also recorded: upregulated; total apoptotic cells [11]: 37.93%; IC50 at 24 h [12]: 80.8 ± 3.04 µM"
"CC1(C)CC(=O)C=C(Nc2c(N)n(Cc3ccccc3Cl)c(=O)[nH]c2=O)C1 [Compound 3b, 6-Amino-1-(2-chlorobenzyl)-5-((5,5-dimethyl-3-oxocyclohex-1-en-1-yl)amino)pyrimidine-2,4(1H,3H)-dione]",294 to 296 °C,40.4 ± 1.25 µM,36.4 ± 1.09 µM,46.1 ± 1.63 µM,low to moderate,–
"Cn1c(N)c(NC2=CC(=O)CC(C)(C)C2)c(=O)[nH]c1=S [Compound 3c, 6-Amino-5-((5,5-dimethyl-3-oxocyclohex-1-en-1-yl)amino)-1-methyl-2-thioxo-2,3-dihydropyrimidin-4(1H)-one]",> 300 °C,> 100 µM,> 100 µM,> 100 µM,low,–
"CCn1c(N)c(NC2=CC(=O)CC(C)(C)C2)c(=O)[nH]c1=O [Compound 3d, 6-Amino-5-((5,5-dimethyl-3-oxocyclohex-1-en-1-yl)amino)-1-ethylpyrimidine-2,4(1H,3H)-dione]",> 300 °C,21.6 ± 0.76 µM,33.3 ± 0.99 µM,31.4 ± 1.39 µM,moderate to high,–
"CC1(C)CC(=O)C=C(Nc2c(N)n(Cc3ccccc3)c(=O)[nH]c2=O)C1 [Compound 3e, 6-Amino-1-benzyl-5-((5,5-dimethyl-3-oxocyclohex-1-en-1-yl)amino)pyrimidine-2,4(1H,3H)-dione]",292 to 294 °C,47.6 ± 1.39 µM,44 ± 1.28 µM,> 100 µM,low to moderate,–
"Cn1c(N)c(NC2=CC(=O)CC(C)(C)C2)c(=O)[nH]c1=O [Compound 3f, 6-Amino-5-((5,5-dimethyl-3-oxocyclohex-1-en-1-yl)amino)-1-methylpyrimidine-2,4(1H,3H)-dione]",> 300 °C,> 100 µM,> 100 µM,> 100 µM,low,–
"O=c1[nH]c(=O)c2n[se]nc2[nH]1 [Compound 5a, [1,2, 5]selenadiazolo[3,4-d]pyrimidine-5,7(4H,6H)-dione]",> 300 °C,51.7 ± 2.09 µM,58 ± 2.13 µM,51.9 ± 1.48 µM,low to moderate,–
"Cn1c(=S)[nH]c(=O)c2n[se]nc21 [Compound 5b, 4-Methyl-5-thioxo-5,6-dihydro-[1,2,5]selenadiazolo[3,4-d]pyrimidin-7(4H)-one]",> 300 °C,57.9 ± 2.43 µM,68.7 ± 3.86 µM,98.1 ± 3.45 µM,low to moderate,–
"CCn1c(=O)[nH]c(=O)c2n[se]nc21 [Compound 5c, 4-Ethyl-[1,2, 5]selenadiazolo[3,4-d]pyrimidine-5,7(4H,6H)-dione]",> 300 °C,33.4 ± 1.09 µM,42.5 ± 1.19 µM,39.7 ± 1.32 µM,–,–
"O=c1[nH]c(=O)n(Cc2ccccc2)c2n[se]nc12 [Compound 5d, 4-Benzyl-[1,2, 5]selenadiazolo[3,4-d]pyrimidine-5,7(4H,6H)-dione]",260 to 261 °C,17.7 ± 0.81 µM,26.8 ± 0.89 µM,29.3 ± 0.86 µM,moderate to high,IC50 [5]: 8.39 ± 1.07 µM; IC50 [7]: 7.69 ± 0.46 µM; IC50 at 24 h [12]: 54.6 ± 2.05 µM
"Cn1c(=O)[nH]c(=O)c2n[se]nc21 [Compound 5e, 4-Methyl-[1,2, 5]selenadiazolo[3,4-d]pyrimidine-5,7(4H,6H)-dione]",> 300 °C,> 100 µM,> 100 µM,> 100 µM,low,–
"Cn1c(=O)c2n[se]nc2n(C)c1=O [Compound 7, 4,6-Dimethyl-[1,2, 5]selenadiazolo[3,4-d]pyrimidine-5,7(4H,6H)-dione]",278 to 280 °C,> 100 µM,> 100 µM,> 100 µM,low,–
"COc1cccc2c1C(=O)c1c(O)c3c(c(O)c1C2=O)C[C@@](O)(C(=O)CO)C[C@@H]3O[C@H]1C[C@H](N)[C@H](O)[C@H](C)O1 [Doxorubicin, reference compound]",–,–,–,–,–,IC50 at 24 h [12]: 19.6 ± 0.74 µM
"CN(Cc1cnc2nc(N)nc(N)c2n1)c1ccc(C(=O)N[C@@H](CCC(=O)O)C(=O)O)cc1 [Methotrexate, reference compound]",–,21.9 ± 1.08 µM,34.5 ± 2.19 µM,29.5 ± 2.19 µM,–,–
